Results published in patent publication US20250221932A1, “IMMUNE ENHANCEMENT OF CANCER TREATMENT” (Spark Therapeutics, Inc., priority 2022, published 2025).

What was measured:
C1498 cells = test: Acute myeloid leukemia (AML) model, survival; type: in vivo, mice (C57BL/6); conditions: 50 μg i.v. day 0, 3, 6; FIG. 9
Procedure: The ability of nanoparticle dsDNA delivery to inhibit leukemia was evaluated in a mouse model for acute myeloid leukemia (AML). The AML model was established by intravenously (i.v.) injecting C57BL/6 mice with 1×10^6 C1498 cells. (See Zhang et al., Blood 2009; 114 (8): 1545-1552 and Curran et al., 2016, Cell Reports 15, 2357-2366).
(§1) Three days post-tumor cell injection, treatment (vehicle, DNA-LNP (10 μg), ADU-S100 (50 μg)) was provided by 100 μL i.v. administration given three times (day 0, 3, 6). Vehicle was made of 20% Glucose/PBS solution. LNP composition (in mole %) was Lipid 9, ˜50% (Lipid 9 is further described in Section I.A. supra and Sabnis et al., (2018) Molecular Therapy 26:6, 1509-1519); C14-PEG2000, ˜1.5%; cholesterol, ˜38.5%; and distearoylphosphatidylcholine (DSPC), ˜10%. ADU-S100 is a STING agonist (MedChemExpress).
(§2) Serum was collected 4 hours after the first dose for cytokine/chemokine analyses. Mice (n=8) were observed daily for abnormalities and euthanized individually when the animal reached the humane endpoint.
The ability of nanoparticle dsDNA delivery to inhibit leukemia was evaluated in the AML mouse model described in Example 5. Three days post-tumor cell injection, administration of vehicle, LNP (same amount of LNP as used in 5 μg DNA-LNP), DNA-LNP (1 μg), DNA-LNP (5 μg) was provided by 100 μL i.v. given three times (day 0, 3, 6). […]

[1] = tested on: serum cytokines/chemokines; test: Serum cytokine levels 4 hours after dosing in the AML model; type: in vivo, mice (C57BL/6); conditions: 4 hours after first i.v. dose, 50 μg
Procedure: as §1, §2
Three days post-tumor cell injection, treatment (vehicle, DNA-LNP (5 μg), DNA-LNP2 (5 μg)) was provided by 100 μL i.v. administration given three times (day 0, 3, 6). Serum was collected 4 hours after the first dose for cytokine/chemokine analyses. Mice (n=8) were observed daily for abnormalities and euthanized individually when the animal reached the humane endpoint.

SMILES: Nc1ncnc2c1ncn2[C@@H]1O[C@@H]2COP(=O)([S-])O[C@@H]3[C@H](O)[C@@H](COP([O-])(=S)O[C@H]2[C@H]1O)O[C@H]3n1cnc2c(N)ncnc21.[Na+].[Na+] (stereo partly shown) [ADU-S100]
- survival in the AML model (C1498 cells): increased survival
- Serum level GRO alpha, Average [1]: 134 pg/mL
- Serum level IFN alpha, Average [1]: 1775 pg/mL
- Serum level IFN beta, Average [1]: 2819 pg/mL
- Serum level IFN gamma, Average [1]: 7 pg/mL
- Serum level IL-6, Average [1]: 2617 pg/mL
- Serum level IL-18, Average [1]: 150 pg/mL
- Serum level MCP-1, Average [1]: 5571 pg/mL
- Serum level MIP-1 beta, Average [1]: 640 pg/mL
- Serum level TNF alpha, Average [1]: 732 pg/mL
